Measured values reported in patent US5922734A, “6-[triazolyl[3-(trifluoromethyl)phenyl]methyl]-2-quinolines and -quinolinethiones” (Janssen Pharmaceutica, N.V., priority 1994, dated 1999).
Like-named read-outs stand apart in the source and are kept apart here.

Key:
[1] = test system: retinoic acid (RA) metabolism; test: Inhibition of retinoic acid (RA) metabolism in MCF-7 human breast cancer cells; type: cell-based; settings: MCF7, 3H-RA substrate, Table 1
Protocol: MCF-7 human breast cancer cells were grown as stock cultures according to art-known protocols. One day before the experiment, RA is added to the stock cultures to stimulate RA-metabolism. At the start of the experiment, cell suspensions were incubated in a tissue culture medium containing ^3 H-RA as the substrate. Different concentrations of the test compound (dissolved in 1% DMSO) were added to the incubation mixtures, and at the end of the incubation, the unmetabolized RA is separated from its polar metabolites. The fraction containing the polar ^3 H-labelled metabolites was collected and counted in a scintillation counter. For each experiment, a control and a blank incubation were run in parallel. The IC50 values listed in table 1 are the concentrations needed to reduce the amount of metabolites to 50% of the control.

[2] = test system: estradiol undecylate induced keratinization effects; test: Vaginal Keratinization Test on Ovariectomized Rats; type: in vivo; settings: Rattus norvegicus, po, lowest active dose
Protocol: Ovariectomized rats were injected subcutaneously with a sesame oil solution containing 100 μg of estradiol undecylate in a volume of 0.1 ml per 100 g body weight and control animals were injected with sesame oil. On day one, two and three, test animals were treated once daily with a per os dose of the test compound and control animals with the drug vehicle (PEG 200). One day after the last treatment, the animals were sacrificed and their vaginas were processed for histological evaluation according to the method described in J. Pharmacol. Exp. Ther. 261(2), 773-779 (1992). A dose at which 50% of the tested rats show complete suppression of the estradiol undecylate induced keratinization effects is defined as an active dose.
In said table, the keratinization effect of the present compound number 3 is compared to the structurally closest art-known compounds, the latter being disclosed in EP-0,371,564.

[3] = 72 h, 50% of ovariectomized rats show complete suppression, per os once daily, 3 days, Table 1, read-out: Keratinization (LAD in mg/kg)
[4] = keratinization effect, per os, ovariectomized rats, comparison with EP-0,371,564 compounds, Table 2, read-out: LAD

| SMILES | IC50 [1] [µM] | minimal effective dose [2, 3] [mg/kg] | minimal effective dose [2, 4] [mg/kg] |
| --- | --- | --- | --- |
| O=c1ccc2cc(C(c3cccc(C(F)(F)F)c3)n3cncn3)ccc2[nH]1 (racemic) [Compound 3, (±)-6-[1H-1,2,4-triazol-1-yl[3-(trifluoromethyl)phenyl]methyl]-2(1H)-quinolinone] | 0.851 | 2.5 | 2.5 |
| Cn1c(=O)ccc2cc(C(c3cccc(C(F)(F)F)c3)n3cncn3)ccc21 (racemic) [Compound 12, (±)-1methyl-6-[1H-1,2,4-triazol-1-yl[3-(trifluoromethyl)phenyl]methyl]-2(1H)-quinolinone] | 8.59 | 2.5 |  |
| Nn1c(=O)ccc2cc(C(c3cccc(C(F)(F)F)c3)n3cncn3)ccc21 (racemic) [Compound 20, (±)-(1-amino-6-[1H-1,2,4-triazol-1-yl-[3-(trifluoromethyl)phenyl]methyl]-2(1H)-quinolinone] | 1.47 | 5 |  |
| Cn1c(=S)ccc2cc(C(c3cccc(C(F)(F)F)c3)n3cncn3)ccc21 (racemic) [Compound 21, (±)-1-methyl-6-[1H-1,2,4-triazol-1-yl[3-(trifluoromethyl]phenyl]methyl]-2(1H)-quinolinethione] | 4.37 | 5 |  |
| O=c1ccc2cc([C@H](c3cccc(C(F)(F)F)c3)n3cncn3)ccc2[nH]1 [Compound 1, (-)-(R)-6-[1H-1,2,4-triazol-1-yl[3-(trifluoromethyl)phenyl]methyl]-2(1H)-quinolinone] | 0.85 | 1.25 |  |
| O=c1ccc2cc([C@@H](c3cccc(C(F)(F)F)c3)n3cncn3)ccc2[nH]1 [Compound 2] | 3.85 | > 40 |  |
| CC(c1cccc(C(F)(F)F)c1)(c1ccc2[nH]c(=O)ccc2c1)n1cncn1 (centres unmarked) [Compound 4] | 0.51 | 5 |  |
| O=c1ccc2cc(C(F)(c3cccc(C(F)(F)F)c3)n3cncn3)ccc2[nH]1 (centres unmarked) [Compound 5] | > 10 | 5 |  |
| CCC(c1cccc(C(F)(F)F)c1)(c1ccc2[nH]c(=O)ccc2c1)n1cncn1 (centres unmarked) [Compound 6] | 0.0182 | 10 |  |
| CC(C)C(c1cccc(C(F)(F)F)c1)(c1ccc2[nH]c(=O)ccc2c1)n1cncn1 (centres unmarked) [Compound 7] | 0.27 | > 20 |  |
| Cc1cc(C(c2cccc(C(F)(F)F)c2)n2cncn2)cc2ccc(=O)[nH]c12 (centres unmarked) [Compound 9] | 0.706 | 10 |  |
| O=c1ccc2c(Cl)c(C(c3cccc(C(F)(F)F)c3)n3cncn3)ccc2[nH]1 (centres unmarked) [Compound 10] | 0.764 | 10 |  |
| O=c1ccc2cc(C(c3cccc(F)c3)n3ccnc3)ccc2[nH]1 (centres unmarked) [Compound 11-a, reference compound] |  |  | 40 |
| O=c1ccc2cc(C(c3cccc(C(F)(F)F)c3)n3cncn3)cc(F)c2[nH]1 (centres unmarked) [Compound 11] | 0.154 | 10 |  |
| Cn1c(=O)ccc2cc(C(F)(c3cccc(C(F)(F)F)c3)n3cncn3)ccc21 (centres unmarked) [Compound 13] | 0.0102 |  |  |
| Cn1c(=O)ccc2cc(C(C)(c3cccc(C(F)(F)F)c3)n3cncn3)ccc21 (centres unmarked) [Compound 14] | 0.00325 | 5 |  |
| FC(F)(F)c1cccc(C(c2ccc3ncccc3c2)n2cncn2)c1 (centres unmarked) [Compound 66-a, reference compound] |  |  | 10 |
